According to patent publication US20190381127A1, “COMBINATION THERAPY WITH A6, CHEMOTHERAPEUTIC AGENTS, RADIATION THERAPY, OR A COMBINATION THEREOF FOR THE TREATMENT OF CANCER” (Splash Pharmaceuticals, Inc., priority 2016, published 2019):

Legend:
[1] = tested on: B16-F10 melanoma cells; assay: B16-F10 lung metastatic model; assay type: in vivo, C57BL/6 mice; settings: tail vein injection; lungs evaluated at day 11
[2] = tested on: B16F10-DsRed cells; assay: B16F10-DsRed Cell Lung Metastasis Model; assay type: in vivo, C57BL/6 mice; settings: for tumor burden in the lungs: A6 200 mg/Kg SC QD, day 12
Procedure: B16F10-DsRed cells were harvested from cells culture. 1×10^6 cells/200 μl were inoculated into DPBS/mouse via bilateral tail vein in 48 female C57BL/6 mice (Charles River).
Mice were randomized into six groups: Grp1 no treatment, Grp2 PTX (10 mg/Kg, IP on days 1 and 8), Grp3 DDP (4 mg/Kg, IP, day 1, 4 and 8), Grp4 A6 (200 mg/Kg, SC, QD), Grp5 A6 plus PTX, Grp6 A6 plus DDP. Animals were weighed before dosing and then twice a week.
Dosing: A6 dosing started immediately after cell inoculation and consecutively for 11 days; DDP/PTX dosing started immediately after inoculation and then on days as above. The study was ended on day 12, and the lungs were harvested to determine metastatic burden.

[3] = biological target: T1, CD44 (Homo sapiens, UniProt P16070); assay: Cross-linking, immunoprecipitation and immunoblotting of SKOV3 lysates; assay type: binding; settings: SKOV3 cells bound and cross-linked to A6
T1 sequence (P16070 21-742): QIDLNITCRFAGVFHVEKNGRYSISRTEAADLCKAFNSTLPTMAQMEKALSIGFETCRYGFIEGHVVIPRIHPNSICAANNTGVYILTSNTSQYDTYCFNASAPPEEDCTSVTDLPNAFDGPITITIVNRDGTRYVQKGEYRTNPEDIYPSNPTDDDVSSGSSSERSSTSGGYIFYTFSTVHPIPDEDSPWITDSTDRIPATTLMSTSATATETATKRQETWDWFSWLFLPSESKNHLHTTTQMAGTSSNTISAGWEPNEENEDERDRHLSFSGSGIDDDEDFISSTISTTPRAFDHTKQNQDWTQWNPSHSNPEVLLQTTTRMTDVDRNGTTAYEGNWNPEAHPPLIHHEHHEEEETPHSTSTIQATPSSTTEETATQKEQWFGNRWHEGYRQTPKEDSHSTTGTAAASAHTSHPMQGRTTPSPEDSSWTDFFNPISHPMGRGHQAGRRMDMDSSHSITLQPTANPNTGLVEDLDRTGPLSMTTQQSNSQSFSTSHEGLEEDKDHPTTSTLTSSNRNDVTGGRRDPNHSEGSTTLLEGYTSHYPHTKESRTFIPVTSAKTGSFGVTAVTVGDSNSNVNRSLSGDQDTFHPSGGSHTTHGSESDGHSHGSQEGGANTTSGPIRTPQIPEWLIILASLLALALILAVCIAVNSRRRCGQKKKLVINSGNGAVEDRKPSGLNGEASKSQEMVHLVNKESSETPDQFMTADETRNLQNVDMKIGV
Procedure: Human ovarian SKOV3 cells were bound and cross-linked to A6. […] To determine if this binding influenced CD44-mediated activity, and to determine if a functional relationship existed between A6 and CD44, intracellular signaling studies were conducted.

[4] = tested on: 2008 cells; assay: CCK-8 cytotoxicity, A6 plus DDP; assay type: cell-based, human; settings: A6 1, 10 or 100 μM 1 h, then 1 h A6 plus DDP; 10% FBS
Procedure: Conditions: Drugs: DDP (3.33 mM stock) and A6 (109.8 mM stock); Drug exposure time: 1 hour ; Cell line: 2008 and its DDP-resistant subline 2008/C31*5.25; Media: RPMI 1640 plus 10% FBS containing 1 mM penicillin/streptomycin; Cytotoxicity Assays: CCK-8 (Cell Counting Kit 8—Dojindo Molecular Technologies).
Tissue culture plates containing 96-well plates were seeded with 3000 cells in 100 μl of media per well. The wells on rows A-D were seeded with 2008 cells, while the wells on rows E-H were seeded with 2008/C13*5.25 cells. The cells were allowed to attach overnight in a 37° C. in 5% CO2 incubator. Approximately 24 h later medium was removed by aspiration and the cells were exposed to 0, 1, 10 or 100 μM A6 peptide in 100 μl. After 1 h, increasing concentrations of DDP were added to triplicate wells in 100 μl medium. Following a 1 h exposure to the combination of A6 and DDP, the drugs were removed by aspiration. The cells were then allowed to grow for 96 h following which the plates were assayed for relative cell growth with the CCK-8 assay.
The assay was performed using triplicate wells for each DDP concentration. […]

[5] = Clinical safety profile of A6 (summary); settings: human, in vivo
[6] = tested on: advanced gynecologic cancer; assay: Phase 1b trial in advanced gynecologic cancer
Procedure: Advanced Gynecologic Cancer: A Phase 1b trial, was conducted in women with advanced gynecologic cancer. […] The study used a sequential dose-escalation design, with the lowest-dose group (4 patients) receiving A6 for cycles of 14 days “on” followed by 14 days “off”, a regimen not expected to produce any therapeutic effect. […] Patients continued treatment until disease progression or unacceptable toxicity. Response was evaluated as defined by RECIST and the Gynecologic Cancer Intergroup (GCIG) CA-125 response criteria.

[7] = tested on: B16-F10 cells; assay: Inhibition of chemotaxis; assay type: cell-based; settings: read-out: IC50 for A6 inhibition of chemotaxis
[8] = tested on: CD44-nonexpressing A278 cells; assay: Cell binding to HA coated plates; assay type: cell-based
Excerpt: (§1) A6 shares sequence homology with the Link Module of CD44. […] This effect was blocked with the anti-CD44 antibody, IM7. […] Without being bound by any particular A6 can induce conformational changes in CD44, resulting in either a lowered affinity of the epitope for DF1485, or preventing DF1485 from binding CD44. The binding of A6 to CD44 results in a modulation of CD44-mediated intracellular signaling and establishes a functional relationship between A6 and CD44 in CD44 expressing cells.

[9] = tested on: CD44-expressing SKOV3 cells; assay: Cell binding to HA coated plates; assay type: cell-based, human
Excerpt: as §1

[10] = human, in vivo
[11] = tested on: human PC-3M-LN4 prostate cancer cells; assay: Orthotopic prostate cancer metastasis model; assay type: in vivo, BALB/c (nu/nu) mice
Procedure: Prostate: A model of prostate cancer was used to evaluate the antimetastatic effect of A6 in mice. Metastases to lymph nodes were measured following the orthotopic injection of human PC-3M-LN4 prostate cancer cells into the prostates of BALB/c (nu/nu) mice.

[12] = tested on: endometrial cancer with metastases to lymph nodes and lungs; assay: Compassionate use, endometrial cancer patient; assay type: in vivo, human
Procedure: A second compassionate use patient was administered A6. The patient was diagnosed with endometrial cancer with metastases to lymph nodes and lungs. The patient underwent a hysterectomy followed by cisplatin and paclitaxel regimen. The patient started A6 1.5 mg/kg/day and continued on this regimen for 2 years with intermittent radiation therapy to the mediastinum to a total dose of 5,000 cGy. […] A6 increased to 2.0 mg/kg/day.

[13] = biological target: T1, CD44; assay: Perturbation of anti-CD44 antibody binding to SKOV3 cells
[14] = tested on: Mat B-111 syngeneic mammary carcinoma cells; assay: Syngeneic mammary carcinoma model; design: species or system Fisher rats; settings: rat, in vivo
Procedure: Mammary: The effects of A6 in mammary tumor and metastasis models were investigated. […] The effect of A6 in Fisher rats inoculated with Mat B-111 syngeneic mammary carcinoma cells was evaluated.

[15] = tested on: human CLL B-cell lymphocytes; assay: CLL B-cell lymphocytes in vitro
[16] = tested on: A2780 cells; assay: CCK-8 cytotoxicity, A6 plus DDP; assay type: cell-based, human; settings: A6 1, 10 or 100 μM 1 h, then 1 h A6 plus DDP; 10% FBS
Procedure: Study Conditions. Drugs: DDP (3.33 mM stock) and A6 (109.8 mM stock); Drug exposure time: 1 hour; Cell line: A2780 and its DDP-resistant subline A2780/CP; Media: RPMI 1640 plus 10% FBS containing 1 mM penicillin/streptomycin; Cytotoxicity Assays: CCK-8 (Cell Counting Kit 8—Dojindo Molecular Technologies).
Tissue culture plates containing 96-well plates were seeded with 4000 cells in 100 μl of media per well. The wells on rows A-D were seeded with A2780 cells, while the wells on rows E-H were seeded with A2780/CP cells. The cells were allowed to attach overnight in a 37° C. in 5% CO2 incubator. Approximately 24 h later medium was removed by aspiration and the cells were exposed to 0, 1, 10 or 100 μM A6 peptide in 100 μl. After 1 h, increasing concentrations of DDP were added to triplicate wells in 100 μl medium. Following a 1 h exposure to the combination of A6 and DDP, the drugs were removed by aspiration. The cells were then allowed to grow for 96 h following which the plates were assayed for relative cell growth with the CCK-8 assay.

[17] = tested on: choroidal neovascularization; assay: Laser-induced choroidal neovascularization (CNV); assay type: in vivo, mouse; settings: compared to the non-treated control group
[18] = tested on: A2780/CP cells; assay: CCK-8 cytotoxicity, A6 plus DDP; assay type: cell-based, human; settings: A6 1, 10 or 100 μM 1 h, then 1 h A6 plus DDP; 10% FBS
Procedure: Study Conditions. Drugs: […] Drug exposure time: 1 hour; Cell line: […] Media: RPMI 1640 plus 10% FBS containing 1 mM penicillin/streptomycin; Cytotoxicity Assays: CCK-8 (Cell Counting Kit 8-Dojindo Molecular Technologies). Tissue culture plates containing 96-well plates were seeded with 4000 cells in 100 μl of media per well. The wells on rows A-[…] cells, while the wells on rows E-[…]/CP cells. […] After 1 h, increasing concentrations of DDP were added to triplicate wells in 100 μl medium. […] The cells were then allowed to grow for 96 h following which the plates were assayed for relative cell growth with the CCK-8 assay. CCK-8 assay. Five μl of CCK-8 stain was added to each well and the plate was incubated at 37° C. incubator for 4 h. The plate was read with a microplate reader at a wavelength of 450 nm. (See FIGS. 5A-5D and FIG. 6). The assay was performed using triplicate wells for each DDP concentration. The data in the tables below is the optical density in the well which is a function of the number of live cells remaining at the end of the 96 h growth period.

[19] = tested on: ovarian cancer
Procedure: Asymptomatic Progression of Ovarian Cancer: A randomized, double-blind, placebo-controlled Phase 2 clinical trial evaluating A6 in women with asymptomatic CA-125 progression of ovarian cancer (“marker-only relapse” or MOR) was conducted. […] Because patients were clinically asymptomatic at the time of entry, the study was able to be placebo-controlled. The primary endpoints were time to clinical progression of disease and safety of A6. The secondary endpoints included changes in serum CA125. This study enrolled 24 patients: 12 were randomized to daily self-administration of A6 at two doses, and 12 to matching placebo injections. Both groups were followed for up to 9 months.

[20] = tested on: bovine retinal microvascular endothelial cells; assay: Retinal endothelial cell VE-cadherin / MMP study; assay type: cell-based

Ac-KPSSPPEE-NH2 [A6, Ac-KPSSPPEE-NH2]
number of lung metastases, % of control [1]: 50% | tumor burden in the lungs ([2]; in the presence or absence of cisplatin): not significantly reduced | tumor burden in the lungs ([2]; in the presence or absence of paclitaxel, 200 mg/kg): not significantly reduce | antimetastatic activity of cisplatin or paclitaxel on addition of A6 ([2]; mouse, in vivo): did not increase antimetastatic activity | direct interaction with CD44 [3]: binding to CD44 | modulation of sensitivity to DDP [4]: failed to modulate the sensitivity | safety profile [5]: no immunogenicity, no dose-limiting toxicities, no serious side-effects | median time to progression (TTP) ([6]; continuous treatment): 78 days | safety outcome ([6]; in vivo): no specific toxicity profile | median time to progression (TTP) ([6]; intermittent therapy (14 days on, 14 days off)): 44 days | patients with disease stabilization ([6]; patients dosed continuously): Greater than 40% | IC50 [7]: 29 nM | binding of cells to HA coated plates [8]: neither A6 nor IM7 had any effect | binding of cells to HA coated plates [9]: increase the binding | half-life [10]: 1.8 to 2 h | percentage of mice with lymph node metastases ([11]; more than 70% in the control group): ≥ 22% | reduction of lymph node volume ([11]; mouse, in vivo): ≤ 70% | clinical outcome ([12]; 10+ years of biannual testing): no evidence of disease | disease status ([12]; A6 1.5 mg/kg/day for 2 years with intermittent radiation therapy): Stable disease | CA-125 ([12]; after A6 dose reduced to 0.25-0.5 mg/kg/day, increased from 25): 71 U/ml | CA-125 ([12]; after A6 increased to 2.0 mg/kg/day): 22 U/ml | CA-125, subsequent follow up ([12]; subsequent follow up): below 25 U/ml | binding of the anti-CD44 antibody DF1485 to CD44-expressing SKOV3 cells ([13]; antibody DF1485): partial inhibition | binding of the anti-CD44 antibody IM7 ([13]; antibody IM7): did not interfere | lymph node metastasis [14]: markedly suppressed | cytotoxicity in vitro [15]: direct, dose-dependent, cytotoxicity | expression of CD44 and ZAP-70 [15]: down modulates | modulation of sensitivity to DDP [16]: failed to modulate the sensitivity | inhibition of new vessel formation [17]: 95% | modulation of sensitivity to DDP [18]: failed to modulate the sensitivity | CA125 response ([19]; in vivo): not associated with CA125 response | complete responses ([19]; in vivo): no complete responses | patients achieving stable disease ([19]; in vivo): 36% | safety profile ([19]; in vivo): comparable to that of control (placebo) treatment | median progression free survival (PFS) ([19]; placebo 49 days): 100 days | MMP dependent VE-cadherin degradation and loss of permeability [20]: inhibit MMP dependent VE-cadherin degradation and the loss of permeability | secretion and activation of MMP-2 and MMP-9 [20]: prevented the secretion and activation
